Test results reported in the supplement of paper PMC11061612.

What was measured:
Hey (Ovarian Carcinoma) = assay: combination Emax (second highest fraction inhibited in the dose matrix, 72 h); higher = more inhibition; extreme values may be limits of the assay
Summary of the method: (§1)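 Cell lines grown in DMEM/F12 or RPMI with 10% FBS were plated in 1536-well plates and held 24 hours at 37°C, 5% CO2 before 72 hours of exposure to two-drug dose matrices, with DMSO typically at 0.2%. CellTiter-Glo 2.0 luminescence gave viability, which was converted to inhibition. Vehicle wells were set to 0 and blank wells to 1. Combination Emax is the second-highest inhibition in the matrix, and Bliss excess is the observed combination effect minus the expected EA + EB − EA·EB, where EA and EB are the single-agent effects.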

EW-1 (Ewing's Sarcoma) = assay: as above
Summary of the method: as §1

[1] = test system: NCI-H2122 (Lung Adenocarcinoma); assay: as above
Summary of the method: as §1

[2] = test system: KOPN-8 (B-Lymphoblastic Leukemia); assay: as above
Summary of the method: as §1

[3] = test system: NCI-H1838 (Lung Adenocarcinoma); assay: as above
Summary of the method: as §1

[4] = test system: OACM5-1 (Esophageal Adenocarcinoma); assay: as above
Summary of the method: as §1

[5] = test system: EJM (Plasma Cell Myeloma); assay: as above
Summary of the method: as §1

[6] = test system: LC-1-sq (Squamous Cell Lung Carcinoma); assay: as above
Summary of the method: as §1

[7] = test system: HCC2998 (Colorectal Carcinoma); assay: as above
Summary of the method: as §1

[8] = test system: NCI-H1092 (Small Cell Lung Carcinoma); assay: as above
Summary of the method: as §1

[9] = test system: ALL-SIL (T-Lymphoblastic Leukemia); assay: as above
Summary of the method: as §1

[10] = test system: NCI-H522 (Lung Adenocarcinoma); assay: Bliss excess, mean over the matrix (fraction); higher = more synergy
Summary of the method: as §1

[11] = test system: A4-Fuk (B-Lymphoblastic Leukemia); assay: as above
Summary of the method: as §1

[12] = test system: COLO-668 (Small Cell Lung Carcinoma); assay: as above
Summary of the method: as §1

[13] = test system: SNU-387 (Hepatocellular Carcinoma); assay: as above
Summary of the method: as §1

[14] = test system: MDA-MB-453 (Breast Carcinoma); assay: as above
Summary of the method: as §1

[15] = test system: ML-2 (Acute Myeloid Leukemia); assay: as above
Summary of the method: as §1

[16] = test system: SW982 (Other Solid Carcinomas); assay: as above
Summary of the method: as §1

[17] = test system: HAL-01 (B-Lymphoblastic Leukemia); assay: as above
Summary of the method: as §1

[18] = test system: OE33 (Esophageal Adenocarcinoma); assay: as above
Summary of the method: as §1
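Wherever Bliss excess, mean over the matrix is given: after 72 h of two-drug dosing.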

Structure (SMILES) | combination Emax (Hey (Ovarian Carcinoma)) | combination Emax (EW-1 (Ewing's Sarcoma)) | combination Emax [1] | combination Emax [2] | combination Emax [3] | combination Emax [4] | combination Emax [5] | combination Emax [6] | combination Emax [7] | combination Emax [8] | combination Emax [9] | Bliss excess [10] | Bliss excess [11] | Bliss excess [12] | Bliss excess [13] | Bliss excess [14] | Bliss excess [15] | Bliss excess [16] | Bliss excess [17] | Bliss excess [18]
CN(CCO)CC[C@H](CSc1ccccc1)Nc1ccc(S(=O)(=O)NC(=O)c2ccc(N3CCC([C@@H](O)c4ccccc4-c4ccc(Cl)cc4)CC3)cc2)cc1S(=O)(=O)C(F)(F)F [AZD4320] + C[C@@H]1COCCN1C2=NC(=NC(=C2)C3(CC3)[S@](=N)(=O)C)C4=C5C=CNC5=NC=C4 [AZD6738] (first compound max 1 µM, 7x7, partner max 10 µM) | 0.869 | 0.997 | 0.972 | 0.995 | 0.694 | 0.663 | 0.929 | 0.845 | 0.968 | 0.915 | 1 | -0.0555 | -0.0169 | 0.0325 | -0.0443 | -0.0453 | 0.0597 | -0.0374 | 0.0405 | -0.0295
Cc1cc2ncnn2cc1Nc1ncc2c(n1)n(C1CCOCC1)c(=O)n2C [AZD7648] + COc1cc([C@@H]2c3cc4c(cc3[C@@H](O[C@@H]3O[C@@H]5CO[C@@H](C)O[C@H]5[C@H](O)[C@H]3O)[C@H]3COC(=O)[C@H]23)OCO4)cc(OC)c1O [Etoposide] (first compound max 10 µM, 7x7, partner max 10 µM) |  |  |  |  |  |  |  |  |  |  |  | 0.0178 | -0.0187 | 0.0429 | -0.0126 | -0.0136 | 0.125 | 0.142 | 0.0962 | 0.0247
C[C@@H](c1ccc2nccn2c1)n1nnc2ncc(-c3cnn(C)c3)nc21 [Savolitinib] + Cc1c2c(nn1C)CSCc1cc(n(C)n1)CSc1cc(c3ccccc3c1)OCCCc1c(C(=O)O)n(C)c3c-2c(Cl)ccc13 [AZD5991] (first compound max 1 µM, 7x7, partner max 1 µM) | 0.127 | 0.2 | 0.64 | 0.844 | 0.28 | 0.896 | 0.232 | 0.278 | 0.454 | 0.46 | 0.264 | -0.0353 | 0.0027 | -0.0417 | -0.0858 | 0.0354 | -0.0082 | -0.0647 | 0.0173 | -0.0152
N#Cc1cnc(Nc2cc(NC[C@H]3CNCCO3)c(C(F)(F)F)cn2)cn1 [SRA737] + Nc1ccn([C@@H]2O[C@H](CO)[C@@H](O)C2(F)F)c(=O)n1 [Gemcitabine] (first compound max 10 µM, 7x7, partner max 0.3 µM) |  |  |  |  |  |  |  |  |  |  |  | 0.102 | 0.0278 | -0.0355 | 0.102 | -0.0075 | 0.061 | 0.0238 | 0.0046 | 0.0039
CN(CCO)CC[C@H](CSc1ccccc1)Nc1ccc(S(=O)(=O)NC(=O)c2ccc(N3CCC([C@@H](O)c4ccccc4-c4ccc(Cl)cc4)CC3)cc2)cc1S(=O)(=O)C(F)(F)F [AZD4320] + CC(=O)O[C@H]1C(=O)[C@@]2(C)[C@H]([C@H](OC(=O)c3ccccc3)[C@]3(O)C[C@H](OC(=O)[C@H](O)[C@@H](NC(=O)c4ccccc4)c4ccccc4)C(C)=C1C3(C)C)[C@]1(OC(C)=O)CO[C@@H]1C[C@@H]2O [Paclitaxel] (first compound max 1 µM, 7x7, partner max 3 µM) |  |  |  |  |  |  |  |  |  |  |  | 0.0246 | -0.0556 | 0.125 | 0.0767 | 0.249 | -0.0009 | 0.0272 | 0.0634 | 0.0836
N#Cc1cnc(Nc2cc(NC[C@H]3CNCCO3)c(C(F)(F)F)cn2)cn1 [SRA737] + C=CCn1c(=O)c2cnc(Nc3ccc(N4CCN(C)CC4)cc3)nc2n1-c1cccc(C(C)(C)O)n1 [AZD1775] (first compound max 10 µM, partner max 1 µM) |  |  |  |  |  |  |  |  |  |  |  | -0.0295 | 0.0277 | 0.151 | 0.03 | 0.0927 | 0.0592 | 0.0316 | 0.0645 | 0.0063
N#Cc1cnc(Nc2cc(NC[C@H]3CNCCO3)c(C(F)(F)F)cn2)cn1 [SRA737] + CCc1c2c(nc3ccc(O)cc13)-c1cc3c(c(=O)n1C2)COC(=O)[C@]3(O)CC [SN-38] (first compound max 10 µM, 7x7, partner max 0.3 µM) |  |  |  |  |  |  |  |  |  |  |  | 0.0337 | -0.0229 | -0.0688 | 0.0321 | -0.0401 | -0.0549 | -0.0929 | -0.0125 | -0.0371
N#Cc1cnc(Nc2cc(NC[C@H]3CNCCO3)c(C(F)(F)F)cn2)cn1 [SRA737] + O=c1[nH]cc(F)c(=O)[nH]1 [5-Fluorouracil] (first compound max 10 µM, 7x7, partner max 20 µM) |  |  |  |  |  |  |  |  |  |  |  | -0.0524 | 0.0129 | 0.0106 | 0.0472 | 0.108 | -0.0476 | 0.0157 | -0.0463 | 0.0184
